Reference: patent US9216960B2, “Spiro[2.4]heptanes for treatment of Flaviviridae infections” (University of Georgia Research Foundation, Inc., priority 2012, dated 2015)

Tests used:
[1] = tested on: hepatitis C virus genotype 1B; conditions: Hu7 RNA replicon assay; cited from earlier work
[2] = tested on: hepatitis C virus genotype 1A; conditions: Hu7 RNA replicon assay; cited from earlier work

SMILES	melting point [°C]	EC50 [1] [nM]	EC50 [2] [nM]
O=c1ccn([C@H]2[C@H](O)[C@H](O)[C@@H](CO)C23CC3)c(=O)[nH]1	114 to 116		
Nc1ncnc2c1ncn2[C@H]1[C@H](O)[C@H](O)[C@@H](CO)C12CC2 [cyclopropy-spirocarbocyclic adenosine, (4R,5S,6R,7R)-4-(6-amino-9H-pur-9-yl)-7-(hydroxymethyl)spiro[2.4]heptane-5,6 diol]		368	273
